US20230174951A1, “PHENOL-RICH GRAPES” (THE STATE OF ISRAEL, MINISTRY OF AGRICULTURE & RURAL …, priority 2020, published 2023)

Assays:
[1] = system: AroG*+STS28 (Line 16) cells; assay: Effect of Phe and p-CA concentrations on cell growth; type: cell-based, Vitis vinifera
Procedure: The concentrations of Phe and p-CA chosen for the feeding experiments were those in which cell viability was not affected, but cell growth was slower. To compare the growth rate, the fresh Weight (FW) of the cells per ml growth media was measured at day 7 of growth. […] Even though the viability of the treated with 0.5-5 mM Phe and 0.1-0.3 mM p-CA was similar, their growth pattern differed with formation of larger clumps in the liquid media (FIG. 6C).

**Q.** For `N[C@@H](Cc1ccccc1)C(=O)O` [Phe, Phenylalanine], which “weight of treated cells” value ([1]; 1, 2 and 5 mM, day 7) is on record?
**A.** The value was “weighed significantly less”.

**Q.** With `O=C(O)/C=C/c1ccc(O)cc1` [p-Coumaric acid, p-coumaric acid] as the molecule, how does the water solubility (Water solubility) read?
**A.** The water solubility was “not water soluble”.

**Q.** What about the cell growth ([1]; 0.3 mM, compared to cells in 0.2% ethanol) of the same molecule?
**A.** Its cell growth is “slower growth”.
